Our source for the IC50 values is PubChem BioAssay AID493144 (Sanford-Burnham Center for Chemical Genomics, 2011).

The source made the active and inactive calls. No rule for the calls is given here.

This experiment deals with Intestinal-type alkaline phosphatase (Homo sapiens) (UniProt P09923). The experiment can be described thus: inhibition of human intestinal phosphatase enzyme – biochemical, human enzyme for mouse series, mouse IAP inhibitor project, SAR follow-up (AID 493144). As to conditions: purified human intestinal alkaline phosphatase, enzymatic activity.
Chain of Intestinal-type alkaline phosphatase (Homo sapiens) (P09923 whole entry, looked up): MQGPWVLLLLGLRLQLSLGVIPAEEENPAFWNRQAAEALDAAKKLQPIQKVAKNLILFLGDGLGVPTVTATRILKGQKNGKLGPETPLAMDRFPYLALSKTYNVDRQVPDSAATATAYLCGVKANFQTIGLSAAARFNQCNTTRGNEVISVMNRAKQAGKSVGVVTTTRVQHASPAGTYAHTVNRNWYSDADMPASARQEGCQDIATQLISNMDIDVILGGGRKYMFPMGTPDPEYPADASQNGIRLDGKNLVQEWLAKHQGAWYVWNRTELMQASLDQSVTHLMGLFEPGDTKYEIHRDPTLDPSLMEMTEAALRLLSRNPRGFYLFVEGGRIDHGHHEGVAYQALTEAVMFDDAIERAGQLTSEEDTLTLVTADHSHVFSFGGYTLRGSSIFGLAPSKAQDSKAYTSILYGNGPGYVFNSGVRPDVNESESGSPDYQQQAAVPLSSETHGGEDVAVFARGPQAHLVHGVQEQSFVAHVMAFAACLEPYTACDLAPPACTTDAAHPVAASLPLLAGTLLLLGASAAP
The IC50 is the concentration that gives 50% inhibition. In the case of `CC(C)N1CCC(=NNC(=O)c2cc(O)c(O)c(O)c2)CC1`, the IC50 was > 100 µM (inactive). To `CCn1nc(C)c(CN2CCC(C(=O)Nc3cccc(-c4cccc(Cl)c4)c3)CC2)c1C` belongs > 100 µM (inactive); to `CCn1cc(CN2CCC(C(=O)Nc3cccc(-c4cccc(F)c4)c3)CC2)cn1`, > 100 µM (inactive); to `Cn1cc(CN2CCC(C(=O)Nc3cccc(-c4cccc(Cl)c4)c3)CC2)cn1`, > 100 µM (inactive).

Consider `CCn1nc(C)c(CN2CCC(C(=O)Nc3cccc(-c4cccc(F)c4)c3)CC2)c1C`, for which the IC50 is > 100 µM (inactive).

Turning to `CC(C)n1cc(CN2CCC(C(=O)Nc3cccc(-c4cccc(Cl)c4)c3)CC2)cn1`, the IC50 is > 100 µM (inactive). Consider `NS(=O)(=O)c1ccc(NC(=S)NCCC(c2ccccc2)c2ccccc2)cc1`, for which the IC50 is > 100 µM (inactive).

On to `CCn1cc(CN2CCC(C(=O)Nc3cccc(-c4cccc(OC)c4)c3)CC2)cn1`, for which the IC50 was > 100 µM (inactive). For the molecule `CC(C)c1ccccc1NC(=S)NCCC(c1ccccc1)c1ccccc1`, the IC50 is > 100 µM (inactive). In the case of `CCCn1ncc(CN2CCC(C(=O)Nc3cccc(-c4cccc(F)c4)c3)CC2)c1C`, the IC50 was > 100 µM (inactive). For the molecule `Cc1nn(C(C)C)c(C)c1CN1CCC(C(=O)Nc2cccc(-c3cccc(F)c3)c2)CC1`, the IC50 was > 100 µM (inactive). To `Cc1cccc(NC(=S)NCCC(c2ccccc2)c2ccccc2)c1C` belongs > 100 µM (inactive).

Consider `Fc1ccc(NC(=S)NCCC(c2ccccc2)c2ccccc2)cc1Cl`, for which the IC50 is > 100 µM (inactive). To `CCn1ncc(CN2CCC(C(=O)Nc3cccc(-c4cccc(F)c4)c3)CC2)c1C` belongs > 100 µM (inactive); to `Cc1c(Cl)cccc1NC(=S)NCCC(c1ccccc1)c1ccccc1`, > 100 µM (inactive); to `Fc1ccccc1NC(=S)NCCC(c1ccccc1)c1ccccc1`, > 100 µM (inactive). On to `CC(C)n1cc(CN2CCC(C(=O)Nc3cccc(-c4cccc(F)c4)c3)CC2)cn1`, for which the IC50 is > 100 µM (inactive). To `CN(C)S(=O)(=O)c1cccc(NC(=S)NCCC(c2ccccc2)c2ccccc2)c1` belongs > 100 µM (inactive); to `CCn1cc(CN2CCC(C(=O)Nc3cccc(-c4cccc(OC)c4)c3)CC2)c(C)n1`, > 100 µM (inactive). For `COc1cccc(-c2cccc(NC(=O)C3CCN(Cc4ccc(C)o4)CC3)c2)c1`, the IC50 was > 100 µM (inactive). To `O=C(CN1C(=O)/C(=C\c2ccco2)SC1=S)Nc1ccccc1C(=O)O` belongs > 100 µM (inactive). As for `Cc1cc(C)cc(NC(=S)NCCC(c2ccccc2)c2ccccc2)c1`, the IC50 is > 100 µM (inactive). On to `COc1ccc(Cl)cc1Nc1nc(-c2ccc(O)c(O)c2)cs1`, for which the IC50 is > 100 µM (inactive). To `Cc1ccc(NC(=O)CCNS(=O)(=O)c2ccc3[nH]c(=O)oc3c2)cc1C` belongs > 100 µM (inactive); to `CCOC(=O)c1ccc(NC(=S)NCCC(c2ccccc2)c2ccccc2)cc1`, > 100 µM (inactive).

Turning to `C=CCn1cc(CN2CCC(C(=O)Nc3cccc(-c4cccc(F)c4)c3)CC2)c(C)n1`, the IC50 is > 100 µM (inactive). For the molecule `Cc1cc(=O)oc2cc(NC(=S)NCCC(c3ccccc3)c3ccccc3)ccc12`, the IC50 was > 100 µM (inactive). To `O=C(CN1C(=O)/C(=C/c2ccco2)SC1=S)Nc1cccc(C(=O)O)c1` belongs > 100 µM (inactive). On to `S=C(NCCC(c1ccccc1)c1ccccc1)Nc1cccc(Cl)c1`, for which the IC50 was > 100 µM (inactive).

For `Cc1cc(NC(=O)CCNS(=O)(=O)c2ccc3[nH]c(=O)oc3c2)ccc1Br`, the IC50 was > 100 µM (inactive). `O=C(Nc1cccc(-c2cccc(Cl)c2)c1)C1CCN(C2CCC2)CC1`: the IC50 is > 100 µM (inactive). To `S=C(NCCC(c1ccccc1)c1ccccc1)Nc1ccccc1` belongs > 100 µM (inactive). To `O=C(CN1C(=O)/C(=C/c2ccco2)SC1=S)Nc1ccc(C(=O)O)cc1` belongs > 100 µM (inactive); to `S=C(NCCC(c1ccccc1)c1ccccc1)Nc1ccc(Cl)cc1`, > 100 µM (inactive); to `Cc1c(Cl)cccc1Nc1nc(-c2ccc(O)c(O)c2)cs1`, > 100 µM (inactive). Under `Cc1ccc(NC(=S)NCCC(c2ccccc2)c2ccccc2)cc1C` stands > 100 µM (inactive). As for `COCc1ccc(CN2CCC(C(=O)Nc3cccc(-c4cccc(Cl)c4)c3)CC2)o1`, the IC50 is > 100 µM (inactive).

Turning to `COc1ccc(C(=O)CSc2n[nH]c(-c3ccccc3)n2)cc1OC`, the IC50 is > 100 µM (inactive).

With `FC(F)(F)c1cccc(NC(=S)NCCC(c2ccccc2)c2ccccc2)c1`, the IC50 is > 100 µM (inactive). As for `Cn1cc(CN2CCC(C(=O)Nc3cccc(-c4cccc(F)c4)c3)CC2)cn1`, the IC50 is > 100 µM (inactive).

As for `C=CCn1cc(CN2CCC(C(=O)Nc3cccc(-c4cccc(Cl)c4)c3)CC2)c(C)n1`, the IC50 is > 100 µM (inactive). Under `CCn1c(SCC(=O)c2ccc(O)c(O)c2)nnc1-c1ccccc1OC` stands 14 µM; under `CC1(c2ccccc2)CC(C)(C)N(C(=S)Nc2ccccc2)c2ccccc21` (stereo not drawn), > 100 µM (inactive). To `O=C(Nc1cccc(-c2cccc(Cl)c2)c1)C1CCN(Cc2ccc(CO)o2)CC1` belongs > 100 µM (inactive). For `S=C(NCCC(c1ccccc1)c1ccccc1)Nc1ccc(Nc2ccccc2)cc1`, the IC50 is > 100 µM (inactive).

Take `COc1ccc(NC(=S)NCCC(c2ccccc2)c2ccccc2)cc1`: the IC50 is > 100 µM (inactive). To `CCn1cc(CN2CCC(C(=O)Nc3cccc(-c4cccc(Cl)c4)c3)CC2)cn1` belongs > 100 µM (inactive); to `CN1CCC(=NNC(=O)c2cc(O)c(O)c(O)c2)CC1`, > 100 µM (inactive). To `COc1cc([N+](=O)[O-])ccc1NC(=S)NCCC(c1ccccc1)c1ccccc1` belongs > 100 µM (inactive).

For the molecule `CCN1CCN(S(=O)(=O)c2ccc3[nH]c(=O)oc3c2)CC1`, the IC50 was > 100 µM (inactive). `COc1cccc(NC(=S)NCCC(c2ccccc2)c2ccccc2)c1`: the IC50 is > 100 µM (inactive). Under `Cc1cc(Cl)ccc1NC(=S)NCCC(c1ccccc1)c1ccccc1` stands > 100 µM (inactive). Under `COc1ccc(Cl)cc1NC(=S)NCCC(c1ccccc1)c1ccccc1` stands > 100 µM (inactive). Regarding `COC(=O)c1cc(NC(=S)NCCC(c2ccccc2)c2ccccc2)cc(C(=O)OC)c1`, the IC50 was > 100 µM (inactive). Under `Cc1ccc(NC(=S)NCCC(c2ccccc2)c2ccccc2)cc1` stands > 100 µM (inactive); under `Cc1c(CN2CCC(C(=O)Nc3cccc(-c4cccc(Cl)c4)c3)CC2)cnn1C`, > 100 µM (inactive); under `O=C(Nc1cccc(-c2cccc(F)c2)c1)C1CCN(Cc2ccc(CO)o2)CC1`, > 100 µM (inactive). For the molecule `S=C(NCCC(c1ccccc1)c1ccccc1)Nc1ccc(Cl)c(Cl)c1`, the IC50 is > 100 µM (inactive). To `S=C(NCCC(c1ccccc1)c1ccccc1)Nc1ccc(Cl)cc1Cl` belongs > 100 µM (inactive); to `COc1cccc(-c2cccc(NC(=O)C3CCN(Cc4ccc(CO)o4)CC3)c2)c1`, > 100 µM (inactive); to `Cc1nn(C)c(Cl)c1CN1CCC(C(=O)Nc2cccc(-c3cccc(F)c3)c2)CC1`, > 100 µM (inactive).

On to `Cc1ccc(C)c(NC(=S)NCCC(c2ccccc2)c2ccccc2)c1`, for which the IC50 was > 100 µM (inactive). To `O=[N+]([O-])c1ccc(NC(=S)NCCC(c2ccccc2)c2ccccc2)cc1` belongs > 100 µM (inactive); to `O=S(=O)(Nc1ncccn1)c1ccc(NC(=S)NCCC(c2ccccc2)c2ccccc2)cc1`, > 100 µM (inactive). For `COc1cc(NC(=S)NCCC(c2ccccc2)c2ccccc2)cc(OC)c1`, the IC50 is > 100 µM (inactive). To `Cc1ccc(CN2CCC(C(=O)Nc3cccc(-c4cccc(F)c4)c3)CC2)o1` belongs > 100 µM (inactive); to `Oc1ccc(-c2csc(Nc3cccc4ccccc34)n2)cc1O`, 44.1 µM; to `CCc1ccccc1Nc1nc(-c2ccc(O)c(O)c2)cs1`, 21.4 µM.
